# Test results: EPA's ToxRefDB 2
# What was measured:
# dog [1] = settings: Subchronic oral toxicity in nonrodent, beagle, Gavage/Intubation, dose end: 6 week, group: systemic
# rat [2] = settings: Subchronic oral toxicity in rodents, sprague dawley, Gavage/Intubation, dose end: 6 week, group: systemic
# rat [3] = settings: Combined chronic toxicity/carcinogenicity; fischer; Oral; Feed; dose end: 2 year; group: systemic; systemic / pathology microscopic / liver / degeneration + systemic / pathology microscopic / liver / hyperplasia + systemic / pathology …
# mouse [4] = settings: Carcinogenicity, b6c3f1, Oral, Feed, dose end: 2 year, group: systemic
# rat [5] = settings: Subchronic oral toxicity in rodents, fischer, Feed, dose end: 13 week, group: systemic
# mouse [6] = settings: Subchronic oral toxicity in rodents, b6c3f1, Feed, dose end: 13 week, group: systemic, systemic / in life observation / body weight / body weight
# rat [7] = settings: Chronic toxicity, sprague dawley, Oral, Gavage/Intubation, dose end: 39 week, group: systemic
# rat [8] = settings: Sub-acute repeat dose toxicity, other, Oral, Gavage/Intubation, dose end: 30 day
# dog [9] = settings: Chronic toxicity, beagle, Oral, Capsule, dose end: 40 week, group: systemic
# rat [10] = settings: Sub-acute repeat dose toxicity, wistar, Oral, Gavage/Intubation, dose end: 28 day
# mouse [11] = settings: Combined chronic toxicity/carcinogenicity; other; Oral; Gavage/Intubation; dose end: 10 month; group: systemic; systemic / pathology microscopic / liver / neoplastic nodule + systemic / pathology microscopic / liver / dysplasia
# rat [12] = settings: Prenatal developmental toxicity study, wistar, Oral, Gavage/Intubation, dose end: 16 GD
# dog [13] = settings: Chronic toxicity, beagle, Oral, Capsule, dose end: 52 week, group: systemic
# rat [14] = settings: Combined chronic toxicity/carcinogenicity, wistar, Oral, Feed, dose end: 104 week, group: systemic
# dog [15] = settings: Subchronic oral toxicity in nonrodent, beagle, Capsule, dose end: 90 day, group: systemic
# hamster [16] = settings: Carcinogenicity, golden syrian, Oral, Feed, dose end: 80 week, group: systemic
# rat [17] = settings: Prenatal developmental toxicity study, wistar, Oral, Gavage/Intubation, dose end: 16 GD; remark: listed apart in the source
# hamster [18] = settings: Subchronic oral toxicity in rodents, golden syrian, Feed, dose end: 13 week, group: systemic
# rabbit = settings: Prenatal developmental toxicity study; new zealand white; Oral; Gavage/Intubation; dose end: 19 GD; group: maternal; reproductive / reproductive performance / aborted / aborted + reproductive / reproductive performance / resorptions / resorptions + systemic…
# rat [19] = settings: Subchronic oral toxicity in rodents, wistar, Feed, dose end: 90 day, group: systemic, systemic / hematology / erythrocyte (rbc) count differential / erythrocyte (rbc) + systemic / hematology / hematocrit (hct) / hematocrit (…
# hamster [20] = settings: Subchronic oral toxicity in rodents, golden syrian, Feed, dose end: 90 day, group: systemic, systemic / clinical chemistry / cholesterol / cholesterol + systemic / clinical chemistry / creatinine / creatinine + systemic / clinical …
# [21] = systemic / in life observation / clinical signs / feces, discoloration + systemic / in life observation / clinical signs / salivation + …
# [22] = systemic / in life observation / clinical signs / salivation + systemic / organ weight / epididymis / absolute + systemic / organ weight / …
# [23] = systemic / clinical chemistry / bilirubin / total bilirubin + systemic / hematology / neutrophils / neutrophils + systemic / in life …
# [24] = systemic / in life observation / body weight / body weight + systemic / in life observation / body weight / body weight gain + systemic / in…
# [25] = systemic / pathology microscopic / liver / necrosis
# [26] = systemic / pathology microscopic / liver / necrosis + systemic / pathology microscopic / liver / adenoma/carcinoma combined + systemic / …
# [27] = systemic / in life observation / body weight / body weight
# [28] = systemic / in life observation / body weight / body weight + systemic / in life observation / food consumption / food consumption + systemic…
# [29] = systemic / organ weight / [other] / absolute + systemic / organ weight / [other] / relative to body weight + systemic / pathology gross / …
# [30] = group: maternal, reproductive / reproductive performance / estrous cycle / abnormal + reproductive / reproductive performance / estrous cycle / length
# [31] = group: maternal, reproductive / reproductive performance / estrous cycle / length
# [32] = group: systemic, systemic / clinical chemistry / follicle stimulating hormone (fsh) / follicle stimulating hormone (fsh) + systemic / in life observation / …
# [33] = group: systemic, systemic / organ weight / adrenal gland / relative to body weight + systemic / organ weight / ovary / relative to body weight + systemic / …
# [34] = systemic / in life observation / body weight / body weight gain + systemic / pathology gross / liver / fat vacuolation + systemic / …
# [35] = systemic / pathology microscopic / blood / [other] + systemic / clinical chemistry / alanine aminotransferase (alt/sgpt) / alanine …
# [36] = group: maternal, reproductive / reproductive performance / estrous cycle / abnormal
# [37] = group: systemic, systemic / clinical chemistry / albumin / albumin + systemic / clinical chemistry / cholesterol / cholesterol + systemic / clinical …
# [38] = group: systemic, systemic / clinical chemistry / cholesterol / cholesterol + systemic / clinical chemistry / thyroid stimulating hormone (thyrotropin) (tsh…
# [39] = group: developmental, developmental / developmental malformation / bone / incomplete ossification + developmental / developmental malformation / bone / [other] + …
# [40] = group: maternal, systemic / in life observation / body weight / body weight + systemic / in life observation / food consumption / food consumption + systemic…
# [41] = systemic / clinical chemistry / alanine aminotransferase (alt/sgpt) / alanine aminotransferase (alt/sgpt) + systemic / organ weight / liver…
# [42] = systemic / in life observation / body weight / body weight gain + systemic / in life observation / food consumption / food consumption + …
# [43] = systemic / clinical chemistry / aminopyrine-n-demethylase / aminopyrine-n-demethylase
# [44] = systemic / pathology microscopic / liver / adenoma + systemic / pathology microscopic / liver / hemangioma + systemic / pathology …
# [45] = systemic / pathology microscopic / ovary / sex cord stromal tumor, benign
# [46] = group: developmental, developmental / developmental malformation / bone / bipartite ossification + developmental / developmental malformation / bone / delayed …
# [47] = group: maternal, systemic / in life observation / food consumption / food consumption + systemic / in life observation / mortality / mortality + reproductive…
# [48] = systemic / in life observation / body weight / body weight gain + systemic / organ weight / liver / absolute + systemic / clinical chemistry…
compound,measurement,setting,value
N#Cc1ccc(N(CC(N)=O)CC(F)(F)F)cc1C(F)(F)F,LOAEL,dog [1]; [21],> 3 mg/kg/day
same,NOAEL,dog [1]; [21],≥ 3 mg/kg/day
same,LEL,dog [1]; [22],0.3 mg/kg/day
same,NEL,dog [1]; [22],< 0.3 mg/kg/day
same,LOAEL,rat [2]; [23],> 30 mg/kg/day
same,NOAEL,rat [2]; [23],≥ 30 mg/kg/day
same,LEL,rat [2]; [24],1 mg/kg/day
same,NEL,rat [2]; [24],< 1 mg/kg/day
O=C(O)C1C(C(=O)O)C2(Cl)C(Cl)=C(Cl)C1(Cl)C2(Cl)Cl (stereo not drawn) [Chlorendic acid],LEL,rat [3],27 mg/kg/day
same,LOAEL,rat [3],27 mg/kg/day
same,NEL,rat [3],< 27 mg/kg/day
same,NOAEL,rat [3],< 27 mg/kg/day
same,LOAEL,mouse [4]; [25],89 mg/kg/day
same,NOAEL,mouse [4]; [25],< 89 mg/kg/day
same,LEL,mouse [4]; [26],89 mg/kg/day
same,NEL,mouse [4]; [26],< 89 mg/kg/day
same,LEL,rat [5]; [27],63 mg/kg/day
same,LOAEL,rat [5]; [27],63 mg/kg/day
same,NEL,rat [5]; [28],31 mg/kg/day
same,NOAEL,rat [5]; [28],31 mg/kg/day
same,LEL,mouse [6],188 mg/kg/day
same,LOAEL,mouse [6],188 mg/kg/day
same,NEL,mouse [6],< 188 mg/kg/day
same,NOAEL,mouse [6],< 188 mg/kg/day
C[C@]12CCC(=O)C=C1CC[C@@H]1[C@@H]2CC[C@@]2(C)[C@H]1CC[C@]2(C)O [17-Methyltestosterone],LOAEL,rat [7]; [29],> 40 mg/kg/day
same,NEL,rat [7]; [29],2 mg/kg/day
same,NOAEL,rat [7]; [29],≥ 40 mg/kg/day
same,LEL,rat [7]; systemic / pathology gross / testes / reduced size + systemic / in life observation / body weight / body weight gain + systemic / in life …,10 mg/kg/day
same,LOAEL,rat [8]; [30],> 80 mg/kg/day
same,NOAEL,rat [8]; [30],≥ 80 mg/kg/day
same,LEL,rat [8]; [31],5 mg/kg/day
same,NEL,rat [8]; [31],< 5 mg/kg/day
same,LOAEL,rat [8]; [32],> 80 mg/kg/day
same,NOAEL,rat [8]; [32],≥ 80 mg/kg/day
same,LEL,rat [8]; [33],5 mg/kg/day
same,NEL,rat [8]; [33],< 5 mg/kg/day
same,LOAEL,dog [9]; [34],> 6 mg/kg/day
same,NOAEL,dog [9]; [34],≥ 6 mg/kg/day
same,LEL,dog [9]; [35],2 mg/kg/day
same,NEL,dog [9]; [35],< 2 mg/kg/day
same,LEL,rat [10]; [36],100 mg/kg/day
same,LOAEL,rat [10]; [36],> 600 mg/kg/day
same,NEL,rat [10]; [36],10 mg/kg/day
same,NOAEL,rat [10]; [36],≥ 600 mg/kg/day
same,LOAEL,rat [10]; [37],> 200 mg/kg/day
same,NOAEL,rat [10]; [37],≥ 200 mg/kg/day
same,LEL,rat [10]; [38],10 mg/kg/day
same,NEL,rat [10]; [38],< 10 mg/kg/day
same,LEL,mouse [11],5 mg/kg/day
same,LOAEL,mouse [11],> 5 mg/kg/day
same,NEL,mouse [11],< 5 mg/kg/day
same,NOAEL,mouse [11],≥ 5 mg/kg/day
CCO/N=C(\CC)C1=C(O)CC(c2c(C)cc(C)cc2C)CC1=O (stereo not drawn) [Tralkoxydim],LOAEL,"rat [12]; group: developmental, developmental / developmental malformation / bone / incomplete ossification",30 mg/kg/day
same,LEL,"rat [12]; group: developmental, developmental / developmental malformation / bone / incomplete ossification + developmental / developmental malformation / bone / [other]",30 mg/kg/day
same,NEL,rat [12]; [39],3 mg/kg/day
same,NOAEL,rat [12]; [39],3 mg/kg/day
same,LEL,rat [12]; [40],200 mg/kg/day
same,LOAEL,rat [12]; [40],200 mg/kg/day
same,LEL,dog [13]; [41],5 mg/kg/day
same,LOAEL,dog [13]; [41],5 mg/kg/day
same,NOAEL,dog [13]; [41],0.5 mg/kg/day
same,NEL,dog [13]; systemic / clinical chemistry / cholesterol / cholesterol + systemic / clinical chemistry / protein / protein + systemic / clinical …,0.5 mg/kg/day
same,LOAEL,rat [14]; [42],118 mg/kg/day
same,NEL,rat [14]; [42],2.3 mg/kg/day
same,NOAEL,rat [14]; [42],23.1 mg/kg/day
same,LEL,rat [14]; systemic / pathology microscopic / pituitary gland / adenoma,23.1 mg/kg/day
same,LEL,dog [15]; [43],0.5 mg/kg/day
same,LOAEL,dog [15]; [43],5 mg/kg/day
same,NEL,dog [15]; [43],< 0.5 mg/kg/day
same,NOAEL,dog [15]; systemic / clinical chemistry / aminopyrine-n-demethylase / aminopyrine-n-demethylase + systemic / clinical chemistry / albumin / albumin + …,0.5 mg/kg/day
same,LOAEL,hamster [16]; [44],> 672 mg/kg/day
same,NOAEL,hamster [16]; [44],≥ 672 mg/kg/day
same,LEL,hamster [16]; [45],27.8 mg/kg/day
same,NEL,hamster [16]; [45],< 27.8 mg/kg/day
same,LOAEL,rat [17]; [46],30 mg/kg/day
same,NEL,rat [17]; [46],1 mg/kg/day
same,NOAEL,rat [17]; [46],3 mg/kg/day
same,LEL,"rat [17]; group: developmental, developmental / developmental malformation / bone / delayed ossification",3 mg/kg/day
same,LOAEL,"rat [17]; group: maternal, systemic / in life observation / food consumption / food consumption + systemic / in life observation / mortality / mortality",200 mg/kg/day
same,LEL,rat [17]; [47],200 mg/kg/day
same,NEL,rat [17]; [47],30 mg/kg/day
same,NOAEL,rat [17]; [47],30 mg/kg/day
same,LOAEL,hamster [18]; systemic / in life observation / body weight / body weight gain + systemic / organ weight / liver / absolute,650 mg/kg/day
same,NEL,hamster [18]; [48],122 mg/kg/day
same,NOAEL,hamster [18]; [48],328 mg/kg/day
same,LEL,hamster [18]; systemic / pathology microscopic / liver / proliferation,328 mg/kg/day
same,LEL,rabbit,100 mg/kg/day
same,LOAEL,rabbit,100 mg/kg/day
same,NEL,rabbit,20 mg/kg/day
same,NOAEL,rabbit,20 mg/kg/day
same,LEL,rat [19],205 mg/kg/day
same,LOAEL,rat [19],205 mg/kg/day
same,NEL,rat [19],20.5 mg/kg/day
same,NOAEL,rat [19],20.5 mg/kg/day
same,LEL,hamster [20],337 mg/kg/day
same,LOAEL,hamster [20],337 mg/kg/day
same,NEL,hamster [20],41 mg/kg/day
same,NOAEL,hamster [20],41 mg/kg/day
